In article PMC6503470, “Antibacterial Oligomeric Polyphenols from the Green Alga Cladophora socialis” (The Journal of Organic Chemistry, 2019):
In brackets after ≈: the same amount, converted by molar mass. Like-named read-outs stand apart in the source and are kept apart here.

Key:
[1] = Antibacterial MIC assay, Gram-negative panel; type: cell-based, Gram-negative bacteria (panel); settings: one value for the whole panel of Gram-negative strains; read-out: Minimal inhibitory concentration, Gram–
[2] = tested on: wild type Candida albicans (WTCA, ATCC 32354); assay: Antifungal MIC assay, wild type C. albicans; type: cell-based; settings: ATCC32354, MIC90, values expressed as 95% confidence interval, read-out: Minimal inhibitory concentration, WTCA
[3] = tested on: P. falciparum strain Dd2L; assay: Parasite proliferation assay, asexual blood-stage P. falciparum, SYBR Green; type: cell-based; settings: Plasmodium falciparum
Experimental: Antimalarial activity was assessed using a standard parasite proliferation assay with asexual blood-stage P. falciparum and SYBR Green detection.[22] Screening media (complete media supplemented with 0.05% Albumax II but without human serum) and fresh O^+ erythrocytes (TSRI Normal Blood Donation) were used for cultures of P. falciparum strain Dd2L (gift from Dr. David Fidock, Colombia University). A Labcyte ECHO acoustic liquid handler transferred compounds into assay plates. The plates were inoculated (Multi-Flo; BioTek, VT) with parasitized erythrocytes and fresh erythrocytes prepared in screening media, resulting in a final parasitemia of 0.3% and hematocrit of 2.5%. A chamber with a low oxygen gas mixture at 37 °C was used to culture the assay plates for 72 h with daily gas exchanges. SYBR Green lysis buffer was added to the wells after incubation using a Multi-Flo liquid dispenser, and plates were incubated at room temperature for an additional 24 h to achieve optimal development of the fluorescence signal which was read by an Envision Multimode Reader (PerkinElmer, MA). The positive controls used were atovaquone (EC50 = 0.0006 μM) and artemisinin (EC50 = 0.03 μM).

[4] = tested on: methicillin-resistant Staphylococcus aureus (MRSA, ATCC 33591); assay: Antibacterial MIC assay, MRSA; type: cell-based; settings: for MIC: Staphylococcus aureus, read-out: Minimal inhibitory concentration, MRSA
[5] = tested on: amphotericin B-resistant C. albicans (ARCA, ATCC 90873); assay: Antifungal MIC assay, amphotericin B-resistant C. albicans; type: cell-based; settings: Candida albicans, ATCC90873; MIC90; values expressed as 95% confidence interval; read-out: Minimal inhibitory concentration, ARCA
[6] = tested on: vancomycin-resistant Enterococcus faecium (VREF, ATCC 700221); assay: Antibacterial MIC assay, VREF; type: cell-based; settings: ATCC700221, MIC90, values expressed as 95% confidence interval, read-out: Minimal inhibitory concentration, VREF
[7] = tested on: human kidney cells (HEK293T); assay: Cytotoxicity, human kidney cells; type: cell-based; settings: at the compound's P. falciparum EC50; cell line not restated, HEK293T assumed
[8] = Cytotoxicity, human kidney cells; type: cell-based; settings: human, HEK293T cells (human kidney cells); read-out: half maximal cytotoxicity concentration (CC50), HEK293T
[9] = tested on: MDR Escherichia coli (MDREC, ATCC BAA-1743); assay: microbe, parasite or virus in culture; settings: ATCCBAA1743, read-out: MIC, MDREC
[10] = tested on: Escherichia coli (EC, ATCC 25922); assay: Antibacterial MIC assay, E. coli; type: cell-based
[11] = asexual blood stages, 72 h, 95% confidence interval, read-out: Half-maximal effective concentration, P. falciparum
[12] = MIC90, at least 90% inhibition of growth, values expressed as 95% confidence interval
[13] = positive controls, read-out: EC50, P. falciparum
[14] = ATCC25922, Gram– column, footnote e: tested only against E. coli, read-out: Minimal inhibitory concentration, Gram– (tested only against E. coli)

MIC [1] [µg/mL] | MIC [2] [µg/mL] | EC50 [3, 11] [µg/mL] | MIC [4, 12] [µg/mL] | MIC [5] [µg/mL] | MIC [6] [µg/mL] | Structure (SMILES) | further results
> 50 | > 50 |  |  | > 50 | > 50 | O=c1oc2c(O)cc(Oc3ccc(Oc4ccc(Oc5ccc(Oc6ccc(Oc7ccc(Oc8ccc(Oc9ccc(Oc%10ccc(Oc%11ccc(Oc%12ccc(-c%13ccc(O)c(O)c%13)cc%12O)cc%11O)cc%10O)cc9O)cc8O)cc7O)cc6O)cc5O)cc4O)cc3O)cc2c2cc(O)c(O)cc12 [compound 11, α-[(4,8,9-trihydroxy-2-benzo[c]chromen-6-on-2-yl)oxy]-ω-[3,4-dihydroxyphenyl]deca[oxy(2-hydroxyphen-4-yl)]] | 
> 50 | > 50 | > 2 |  | > 50 | > 50 | Oc1ccc(Oc2ccc(Oc3ccc(Oc4ccc(Oc5ccc(Oc6ccc(Oc7ccc(Oc8ccc(Oc9ccc(-c%10ccc(O)c(O)c%10)cc9O)cc8O)cc7O)cc6O)cc5O)cc4O)cc3O)cc2O)cc1O [compound 7, α-hydro-ω-[3,4-dihydroxyphenyl]nona[oxy(2-hydroxyphen-4-yl)]] | 
> 50 | 46 ± 13 (≈ 47.2 µM) | > 2 | 1.4 (≈ 1.44 µM) | 46 ± 9 (≈ 47.2 µM) | > 50 | Oc1ccc(Oc2ccc(Oc3ccc(Oc4ccc(Oc5ccc(Oc6ccc(Oc7ccc(Oc8ccc(-c9ccc(O)c(O)c9)cc8O)cc7O)cc6O)cc5O)cc4O)cc3O)cc2O)cc1O [compound 6, α-hydro-ω-[3,4-dihydroxyphenyl]octa[oxy(2-hydroxyphen-4-yl)]] | Minimal inhibitory concentration, MRSA [4, 12]: 1.4 ± 0.3 µg/mL (≈ 1.44 µM)
> 50 | > 50 | > 2 | 13 to 49 (≈ 11.7 to 44.2 µM) | > 50 | > 50 | O=c1oc2c(O)cc(Oc3ccc(Oc4ccc(Oc5ccc(Oc6ccc(Oc7ccc(Oc8ccc(Oc9ccc(-c%10ccc(O)c(O)c%10)cc9O)cc8O)cc7O)cc6O)cc5O)cc4O)cc3O)cc2c2cc(O)c(O)cc12 [compound 9, α-[(4,8,9-trihydroxy-2-benzo[c]chromen-6-on-2-yl)oxy]-ω-[3,4-dihydroxyphenyl]hepta[oxy(2-hydroxyphen-4-yl)]] | Minimal inhibitory concentration, MRSA [4, 12]: 14 ± 3 µg/mL (≈ 12.6 µM)
> 50 | > 50 | 1.9 ± 0.2 | 13 to 49 (≈ 28.2 to 106 µM) | > 50 | > 50 | O=c1oc2c(O)cc(Oc3ccc(-c4ccc(O)c(O)c4)cc3O)cc2c2c(O)c(O)ccc12 [compound 5, 4,9,10-trihydroxy-2-[(3,3′,4′-trihydroxy-(1,1′-biphenyl)-4-yl)oxy]benzo[c]chromen-6-one] | Minimal inhibitory concentration, MRSA [4, 12]: 13 ± 2 µg/mL (≈ 28.2 µM); toxicity at the P. falciparum EC50 values [7]: no toxicity; CC50 [8]: 4.5 µg/mL (≈ 9.77 µM)
 | > 50 |  |  | > 50 | > 50 | O=c1oc2c(O)cc(Oc3ccc(Oc4ccc(Oc5ccc(Oc6ccc(Oc7ccc(Oc8ccc(Oc9ccc(Oc%10ccc(Oc%11ccc(Oc%12ccc(Oc%13ccc(-c%14ccc(O)c(O)c%14)cc%13O)cc%12O)cc%11O)cc%10O)cc9O)cc8O)cc7O)cc6O)cc5O)cc4O)cc3O)cc2c2cc(O)c(O)cc12 [compound 12, α-[(4,8,9-trihydroxy-2-benzo[c]chromen-6-on-2-yl)oxy]-ω-[3,4-dihydroxyphenyl]undeca[oxy(2-hydroxyphen-4-yl)]] | MIC [10, 14]: > 50 µg/mL
> 50 | > 50 | > 2 |  | > 50 | > 50 | O=c1oc2c(O)cc(Oc3ccc(Oc4ccc(Oc5ccc(Oc6ccc(Oc7ccc(Oc8ccc(Oc9ccc(Oc%10ccc(Oc%11ccc(-c%12ccc(O)c(O)c%12)cc%11O)cc%10O)cc9O)cc8O)cc7O)cc6O)cc5O)cc4O)cc3O)cc2c2cc(O)c(O)cc12 [compound 10, α-[(4,8,9-trihydroxy-2-benzo[c]chromen-6-on-2-yl)oxy]-ω-[3,4-dihydroxyphenyl]nona[oxy(2-hydroxyphen-4-yl)]] | 
 | > 50 | > 2 | 13 to 49 (≈ 10.7 to 40.3 µM) | > 50 | > 50 | O=c1oc2c(O)cc(Oc3ccc(Oc4ccc(Oc5ccc(Oc6ccc(Oc7ccc(Oc8ccc(Oc9ccc(Oc%10ccc(-c%11ccc(O)c(O)c%11)cc%10O)cc9O)cc8O)cc7O)cc6O)cc5O)cc4O)cc3O)cc2c2cc(O)c(O)cc12 [compound 8, α-[(4,8,9-trihydroxy-2-benzo[c]chromen-6-on-2-yl)oxy]-ω-[3,4-dihydroxyphenyl]octa[oxy(2-hydroxyphen-4-yl)]] | Minimal inhibitory concentration, MRSA [4, 12]: 25 ± 3 µg/mL (≈ 20.5 µM); MIC [10, 14]: > 50 µg/mL

Continued, compound first:

Structure (SMILES) | MIC [1] [µg/mL] | MIC [2] [µg/mL] | EC50 [3, 11] [µg/mL] | MIC [4, 12] [µg/mL] | MIC [5] [µg/mL] | MIC [6] [µg/mL] | further results
O=c1oc2cc(O)c(O)cc2c2cc(O)c(O)cc12 [compound 4, 2,3,8,9-tetrahydroxybenzo[c]chromen-6-one] | > 50 | > 50 | 0.7 ± 0.1 | > 50 | > 50 | > 50 | toxicity at the P. falciparum EC50 values [7]: no toxicity; CC50 [8]: 9.4 µg/mL (≈ 36.1 µM)
O=C1CN(/N=C/c2ccc([N+](=O)[O-])o2)C(=O)N1 [nitrofurantoin] |  |  |  |  |  |  | MIC [9]: 14 ± 1 µg/mL (≈ 58.8 µM)
O=C(N[C@H](CO)[C@H](O)c1ccc([N+](=O)[O-])cc1)C(Cl)Cl [chloramphenicol, reference compound] |  |  |  |  |  | < 8 | MIC ([10]; ATCC25922, positive control, read-out: MIC, EC): < 8 µg/mL
C[C@@H]1[C@H](O)[C@@H](C)/C=C/C=C/C=C/C=C/C=C/C=C/C=C/[C@H](O[C@@H]2O[C@H](C)[C@@H](O)[C@H](N)[C@@H]2O)C[C@@H]2O[C@](O)(C[C@@H](O)C[C@@H](O)[C@H](O)CC[C@@H](O)C[C@@H](O)CC(=O)O[C@H]1C)C[C@H](O)[C@H]2C(=O)O [amphotericin B, reference compound] |  | 16 ± 1 (≈ 17.3 µM) |  |  |  |  | 
C[C@@H]1CC[C@H]2[C@@H](C)C(=O)O[C@@H]3O[C@@]4(C)CC[C@@H]1[C@]32OO4 [artemisinin, reference compound] |  |  |  |  |  |  | EC50 [3, 13]: 30 nM
O=C1C(O)=C([C@H]2CC[C@H](c3ccc(Cl)cc3)CC2)C(=O)c2ccccc21 [atovaquone, reference compound] |  |  |  |  |  |  | EC50 [3, 13]: 0.6 nM
Oc1ccc(-c2ccc(O)c(O)c2)cc1O [compound 3, 3,4,3′,4′-tetrahydroxy-1,1′-biphenyl] | > 50 | > 50 |  | > 50 | > 50 | > 50 | 
CN[C@H](CC(C)C)C(=O)N[C@H]1C(=O)N[C@@H](CC(N)=O)C(=O)N[C@H]2C(=O)N[C@H]3C(=O)N[C@H](C(=O)N[C@H](C(=O)O)c4cc(O)cc(O)c4-c4cc3ccc4O)[C@H](O)c3ccc(c(Cl)c3)Oc3cc2cc(c3O[C@@H]2O[C@H](CO)[C@@H](O)[C@H](O)[C@H]2O[C@H]2C[C@](C)(N)[C@H](O)[C@H](C)O2)Oc2ccc(cc2Cl)[C@H]1O [vancomycin, reference compound] |  |  |  |  |  |  | MIC [4]: < 4 µg/mL
